Assay results as given in PubChem BioAssay AID624003 (Vanderbilt Specialized Chemistry Center, 2012).

Target: Phospholipase D1 (Homo sapiens) + Phospholipase D1 (Homo sapiens) (UniProt Q13393+Q13393)
Assay: cellular phospholipase D1 inhibitors, IC50 – cell-based, Lib32, assay 2A, dose response (AID 624003)
Conditions: cellular PLD1 activity assay

Chain of Phospholipase D1 (Homo sapiens) + Phospholipase D1 (Homo sapiens) (Q13393 whole entry, looked up): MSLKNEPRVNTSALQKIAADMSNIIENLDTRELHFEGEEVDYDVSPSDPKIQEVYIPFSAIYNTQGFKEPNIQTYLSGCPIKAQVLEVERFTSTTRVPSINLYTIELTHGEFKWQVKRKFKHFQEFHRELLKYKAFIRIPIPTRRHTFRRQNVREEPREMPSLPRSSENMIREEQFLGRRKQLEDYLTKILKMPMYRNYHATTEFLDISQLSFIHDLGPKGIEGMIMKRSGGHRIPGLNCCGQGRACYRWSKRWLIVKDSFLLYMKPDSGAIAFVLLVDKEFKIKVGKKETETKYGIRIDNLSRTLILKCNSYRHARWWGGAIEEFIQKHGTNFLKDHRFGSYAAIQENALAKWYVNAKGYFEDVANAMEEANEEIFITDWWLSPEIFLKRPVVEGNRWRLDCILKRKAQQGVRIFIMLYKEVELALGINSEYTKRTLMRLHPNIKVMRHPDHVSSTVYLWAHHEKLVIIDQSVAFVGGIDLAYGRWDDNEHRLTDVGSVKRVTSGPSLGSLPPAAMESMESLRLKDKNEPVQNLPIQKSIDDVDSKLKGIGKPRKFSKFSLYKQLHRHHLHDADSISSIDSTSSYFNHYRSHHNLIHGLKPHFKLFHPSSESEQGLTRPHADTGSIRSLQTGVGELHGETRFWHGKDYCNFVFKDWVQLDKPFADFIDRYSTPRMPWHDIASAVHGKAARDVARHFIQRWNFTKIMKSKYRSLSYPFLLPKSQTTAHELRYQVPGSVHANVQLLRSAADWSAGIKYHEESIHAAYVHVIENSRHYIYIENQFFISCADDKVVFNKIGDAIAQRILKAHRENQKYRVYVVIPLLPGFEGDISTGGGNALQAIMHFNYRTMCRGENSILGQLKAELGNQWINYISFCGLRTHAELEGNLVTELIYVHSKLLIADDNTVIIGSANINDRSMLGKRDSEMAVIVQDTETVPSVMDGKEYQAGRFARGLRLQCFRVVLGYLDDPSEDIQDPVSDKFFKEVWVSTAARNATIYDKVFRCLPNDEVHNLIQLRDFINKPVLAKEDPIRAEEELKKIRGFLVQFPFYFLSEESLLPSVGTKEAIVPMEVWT
Chain of Phospholipase D1 (Homo sapiens) + Phospholipase D1 (Homo sapiens) (Q13393 whole entry, looked up): as above

Compound: C[C@@H](CN1CCC2(CC1)C(=O)NCN2c1cccc(F)c1)NC(=O)c1ccc(F)cc1
- IC50: 20 nM

Compound: C[C@@H](CN1CCC2(CC1)C(=O)NCN2c1cccc(F)c1)NC(=O)c1ccc(F)cc1F
- IC50: 136 nM

Compound: C[C@@H](CN1CCC2(CC1)C(=O)NCN2c1cccc(F)c1)NC(=O)c1ccc(F)c(F)c1
- IC50: 86 nM

Compound: COc1cc(C(=O)NCCN2CCC3(CC2)C(=O)NCN3c2cccc(F)c2)cc(OC)c1OC
- IC50: 4320 nM

Compound: O=C(NCCN1CCC2(CC1)C(=O)NCN2c1cccc(F)c1)c1ccc(Br)cc1
- IC50: 1540 nM

Compound: COc1cc(C(=O)N[C@@H](C)CN2CCC3(CC2)C(=O)NCN3c2cccc(F)c2)cc(OC)c1OC
- IC50: 22 nM

Compound: C[C@@H](CN1CCC2(CC1)C(=O)NCN2c1cccc(F)c1)NC(=O)c1cccc(F)c1
- IC50: 73 nM

Compound: C[C@@H](CN1CCC2(CC1)C(=O)NCN2c1cccc(F)c1)NC(=O)c1cccc([N+](=O)[O-])c1
- IC50: 122 nM
